Where “and” joins values, the source holds several entries; their conditions need not be identical. Equal values may be shown once.
Assays:
[1] = Liquid; for mass density: 293.15 K, 101.33 kPa, Vibrating tube method; for vapor or sublimation pressure: Ebulliometric method (Recirculating still)
[2] = refractive index (Na D-line) (dimensionless); settings: 293.15 K; 101.33 kPa; Liquid; Standard Abbe refractometry

CC#N [acetonitrile]
Settings	mass density [kg/m3]	refractive index
[1]	782	–
[2]	–	1.3425

[1]
Settings	vapor or sublimation pressure
307.22 K	18.08 kPa
311.3 K	21.45 kPa
314.05 K	24 kPa
316.73 K	26.73 kPa
320.8 K	31.35 kPa
323.52 K	34.82 kPa
325.8 K	37.88 kPa
328.95 K	42.59 kPa
330.5 K	45.06 kPa
333.02 K	49.34 kPa
335.2 K	53.31 kPa
338.45 K	59.68 kPa
341.17 K	65.47 kPa
343.43 K	70.59 kPa
346.6 K	78.43 kPa
350.67 K	89.46 kPa
354.75 K	101.64 kPa and 101.3 kPa

C[S+](C)[O-] [dimethyl sulfoxide]
Settings	mass density [kg/m3]	refractive index
[1]	1101	–
[2]	–	1.4751

[1]
Settings	vapor or sublimation pressure
401.95 K	15.28 kPa
405.11 K	17.11 kPa
408.75 K	19.42 kPa
411.45 K	21.32 kPa
414.6 K	23.72 kPa
419.36 K	27.76 kPa
421.15 K	29.41 kPa
424.1 K	32.35 kPa
430.45 K	39.43 kPa
433.59 K	43.43 kPa
436.75 K	47.75 kPa
439.92 K	52.42 kPa
442.85 K	57.05 kPa
447.83 K	65.75 kPa
455.74 K	81.72 kPa
463.43 K	101.3 kPa
463.45 K	100.76 kPa and 101.3 kPa

O [water]
[1]
Settings	vapor or sublimation pressure
320.37 K	10.74 kPa
324.33 K	13.09 kPa
326.63 K	14.66 kPa
328.29 K	15.86 kPa
333.57 K	20.33 kPa
340.16 K	27.37 kPa
343.85 K	32.16 kPa
345.44 K	34.4 kPa
347.83 K	38.07 kPa
349.4 K	40.62 kPa
351.8 K	44.82 kPa
354.68 K	50.37 kPa
358.64 K	58.91 kPa
361.08 K	64.72 kPa
362.59 K	68.63 kPa
367.87 K	83.63 kPa
373.15 K	101.31 kPa and 101.3 kPa

Settings	refractive index
[2]	1.3312

Reference: the NIST ThermoML archive (doi:10.1021/je400531a)
